How the values were obtained:
[1] = Stability study on storage (25° C. ± 2° C./60% ± 5% RH) for 3 months
Experimental: The complete x-ray powder spectrum, which was recorded with a Rigaku multifelx 2.0 Kilowatt X-ray powder diffractometer model using copper radiation. The X-ray diffraction pattern was recorded by keeping the instrument parameters listed below:
i) X-ray: Cu/40 kv/30 mA, Diverging slit: 1°, Scattering slit: 1°, Receiving slit: 0.15 mm, Monochromator RS: 0.8 mm, Counter: Scintillation counters;
Scan mode: Continuous, Scan speed: 4.000 deg./min., Sampling width: 0.010°,
Scan axes: 2 theta vs CPS, Scan range: 4° to 40.0°, Theta offset: 0.000.
iv) (2R)-4-oxo-4-[3-(trifluoromethyl)-5,6-dihydro[1,2,4]-triazolo[4,3-a]pyrazin-7(8H)-yl]-1-(2,4,5-trifluorophenyl)butan-2-amine and its salts were analyzed for purity by analytical HPLC at λmax 210 nm using column YMC-C8, 250 mm×4.6 mm×4 mm or its equivalent on AGILENT 1100 series under the following conditions, Detector: UV absorption photometer Wave length: 210 nm Column temp.: 25° C. Flow rate: 1.0 mL/min. Injection Vol.: 10 μL Mobile Phase: 10 mM KH2PO4 (pH-6.8): Acetonitrile (55:45) (2R)-4-oxo-4-[3-(trifluoromethyl)-5,6-dihydro[1,2,4]-triazolo[4,3-a]pyrazin-7(8H)-yl]-1-(2,4,5-trifluorophenyl)butan-2-amine and its salts were analyzed for chiral purity by HPLC at λmax 268 nm using column Chiral-Cel OJ-H, 250 mm×4.6 mm×5μ or its equivalent on Shimadzu LCVP model under the following conditions, Detector: UV absorption photometer Wave length: 268 nm Column temp.: 35° C. Flow rate: 0.8 mL/min.

[2] = tested on: male C57BLKS/J mice; experiment: Oral glucose tolerance test (OGTT) in male C57 mice; assay type: in vivo; details: for % change in AUC glucose: single dose 10 mg/kg PO with glucose load 3 g/kg, male C57 mice fasted 18 h, AUC for 120 min, vs vehicle control; for efficacy compared with crystalline monohydrate phosphate salt (SP): acute oral glucose tolerance test in C57 mice, 10 mg/kg PO
Experimental: Eight to ten weeks old male C57BLKS/J mice obtained from Animal Research Facility of Zydus Research Centre were used. The mice were allowed ad libitum access to chow and water. Animals were on a 12-hour light, 12-hour dark cycle. Protocol for use of animals for conducting this study has been reviewed and approved by Institutional Animal Ethics Committee (IAEC).
Oral glucose tolerance test (OGTT) was performed on these animals. The mice were deprived of food for 18 h and then drug or vehicles were administered with a glucose load (3 g/kg) by oral route. Blood (200 μL) samples were collected at 0, 30, 60, 120 and 240 min. Serum glucose concentrations were determined using commercially available kits purchased from RFCL (New Delhi, India) using spectrophotometric assay. […] The area under the curve for 120 min was calculated, based on which the percentage inhibition was obtained for each treatment.

[3] = Stability of the novel salts versus free base (statement, no method given); assay type: physicochemical; details: compared with the free base; no conditions given
[4] = After 3 Month storage at 25° C. ± 2° C./60% ± 5% RH
[5] = After 3 Month storage at 25° C. ± 2° C./60% ± 5% RH, listed as besylate crystalline(II)
[6] = Initial, listed as besylate crystalline(II)
[7] = After 3 Month storage at 25° C. ± 2° C./60% ± 5% RH, listed as besylate amorphous
[8] = Initial, listed as besylate amorphous

Molecule: Cl.N[C@@H](CC(=O)N1CCn2c(nnc2C(F)(F)F)C1)Cc1cc(F)c(F)cc1F [Hydrochloride crystalline, hydrochloride salt of (2R)-4-oxo-4-[3-(trifluoromethyl)-5,6-dihydro[1,2,4]triazolo[4,3-a]pyrazin-7(8H)-yl]-1-(2,4,5-trifluorophenyl)butan-2-amine]
- Description [1, 4]: white colored powder
- Polymorphism XRD [1, 4]: No Change
- Purity (By HPLC) [1, 4]: 99.91%
- Water (by KFR) [1, 4]: 4.01%
- Description ([1]; Initial): white colored powder
- Polymorphism XRD ([1]; Initial): Crystalline pattern
- Purity (By HPLC) ([1]; Initial): 99.82%
- Water (by KFR) ([1]; Initial): 3.54%

Molecule: N[C@@H](CC(=O)N1CCn2c(nnc2C(F)(F)F)C1)Cc1cc(F)c(F)cc1F [SB, (2R)-4-oxo-4-[3-(trifluoromethyl)-5,6-dihydro[1,2,4]triazolo[4,3-a]pyrazin-7(8H)-yl]-1-(2,4,5-trifluorophenyl)butan-2-amine, reference compound]
- % change in AUC glucose [2]: −36.5 ± 1.6%

Molecule: N[C@@H](CC(=O)N1CCn2c(nnc2C(F)(F)F)C1)Cc1cc(F)c(F)cc1F.O=S(=O)(O)c1ccccc1 [SBII, crystalline besylate salt(II) of (2R)-4-oxo-4-[3-(trifluoromethyl)-5,6-dihydro[1,2,4]triazolo[4,3-a]pyrazin-7(8H)-yl]-1-(2,4,5-trifluorophenyl)butan-2-amine]
- Polymorphism XRD [1, 4]: No Change
- Description [1, 5]: Off white colored
- Purity (By HPLC) [1, 5]: 99.97%
- Water (by KFR) [1, 5]: 2.90%
- Description ([1]; Initial): white colored powder
- Polymorphism XRD [1, 6]: Crystalline pattern
- Purity (By HPLC) [1, 6]: 99.87%
- Water (by KFR) [1, 6]: 2.77%
- efficacy compared with crystalline monohydrate phosphate salt (SP) [2]: better than
- % change in AUC glucose ([2]; 10 mg/kg): −45.7 ± 1.5%

Molecule: N[C@@H](CC(=O)N1CCn2c(nnc2C(F)(F)F)C1)Cc1cc(F)c(F)cc1F.O=S(=O)(O)c1ccccc1 [SBa, amorphous besylate salt of (2R)-4-oxo-4-[3-(trifluoromethyl)-5,6-dihydro[1,2,4]triazolo[4,3-a]pyrazin-7(8H)-yl]-1-(2,4,5-trifluorophenyl)butan-2-amine]
- Polymorphism XRD [1, 4]: No Change
- Description [1, 7]: white colored powder
- Purity (By HPLC) [1, 7]: 99.52%
- Water (by KFR) [1, 7]: 3.14%
- Description ([1]; Initial): white colored powder
- Polymorphism XRD [1, 8]: amorphous pattern
- Purity (By HPLC) [1, 8]: 99.41%
- Water (by KFR) [1, 8]: 1.01%
- efficacy compared with crystalline monohydrate phosphate salt (SP) [2]: better than
- % change in AUC glucose ([2]; 10 mg/kg): −43.3 ± 1.6%

Molecule: N[C@@H](CC(=O)N1CCn2c(nnc2C(F)(F)F)C1)Cc1cc(F)c(F)cc1F.O=P(O)(O)O [SP, (2R)-4-oxo-4-[3-(trifluoromethyl)-5,6-dihydro[1,2,4]triazolo[4,3-a]pyrazin-7(8H)-yl]-1-(2,4,5-trifluorophenyl)butan-2-amine phosphate salt, reference compound]
- % change in AUC glucose [2]: −31.9 ± 1.8%

Molecule: N[C@@H](CC(=O)N1CCn2c(nnc2C(F)(F)F)C1)Cc1cc(F)c(F)cc1F.O=C(O)C(F)(F)F [TFA salt, Trifluoroacetic acid salt of (2R)-4-oxo-4-[3-(trifluoromethyl)-5,6-dihydro[1,2,4]triazolo[4,3-a]pyrazin-7(8H)-yl]-1-(2,4,5-trifluorophenyl)butan-2-amine]
- Description [1, 4]: white colored powder
- Polymorphism XRD [1, 4]: No Change
- Purity (By HPLC) [1, 4]: 97.5%
- Water (by KFR) [1, 4]: 3.45%
- Description ([1]; Initial): white colored powder
- Polymorphism XRD ([1]; Initial): Crystalline pattern
- Purity (By HPLC) ([1]; Initial): 97.89%
- Water (by KFR) ([1]; Initial): 2.77%

Molecule: N[C@@H](CC(=O)N1CCn2c(nnc2C(F)(F)F)C1)Cc1cc(F)c(F)cc1F.O=C(O)CCCCC(=O)O [adipate, adipic acid salt of (2R)-4-oxo-4-[3-(trifluoromethyl)-5,6-dihydro[1,2,4]triazolo[4,3-a]pyrazin-7(8H)-yl]-1-(2,4,5-trifluorophenyl)butan-2-amine]
- stability of the salt [3]: very stable

Molecule: (2R)-4-oxo-4-[3-(trifluoromethyl)-5,6-dihydro[1,2,4]triazolo[4,3-a]pyrazin-7(8H)-yl]-1-(2,4,5-trifluorophenyl)butan-2-amine gentisate [SG]
- stability of the salt [3]: very stable
- efficacy compared with crystalline monohydrate phosphate salt (SP) [2]: better than
- % change in AUC glucose [2]: −39.4 ± 1.8%

Source: US9108972B2, “Salts of DPP-IV inhibitor” (Cadila Healthcare Limited, priority 2011, dated 2015)
